The results in this text go back to patent publication USRE39197E1, “Cell adhesion-inhibiting antiinflammatory and immune-suppressive compounds” (Abbott Laboratories, priority 1998, dated 2006).

The structures appear in SMILES notation.

The subject of assay [1] is adherence of JY-8 cells (expressing LFA-1) to immobilized ICAM-1. Put plainly: ICAM-1/JY-8 Cell Adhesion Assay. It counts as cell-based, human. The procedure: ICAM-1/JT-8 Cell Adhesion Assay
For measurment measurement of inhibotory inhibitory activity in the cell-based adhesion assay, 96-well microtiter plates are were coated with 70 μL of recombinat recombinant ICAM-1/Ig (ICOS Corporation) at a concentration of 5 μg/mL in D-PBS w/o without Ca^++ or Mg++ or Mg^++ overnight at 4° C. The wells are were then washed twice with D-PBS and blocked by addition of 200 μL of D-PBS, 5% fish skin gelatin by incubation for 1 hour at room temperature. […] The percent inhibition of a candidate compound at a given concentration is was calculated using the following equation: [formula] and these concentration/inhibition data are were used to generate does response curves, from which IC50 values are were derived.

In assay [2] the target is T1, interaction between the integrin LFA-1 and its adhesion partner ICAM-1 (Homo sapiens, UniProt P20701).
T1 construct: Recombinant LFA-1 (100 μL of 0.7 μg/ml mL, ICOS Corporation) in D-PBS; purchased ICOS Corporation
T1 sequence (P20701 26-1170): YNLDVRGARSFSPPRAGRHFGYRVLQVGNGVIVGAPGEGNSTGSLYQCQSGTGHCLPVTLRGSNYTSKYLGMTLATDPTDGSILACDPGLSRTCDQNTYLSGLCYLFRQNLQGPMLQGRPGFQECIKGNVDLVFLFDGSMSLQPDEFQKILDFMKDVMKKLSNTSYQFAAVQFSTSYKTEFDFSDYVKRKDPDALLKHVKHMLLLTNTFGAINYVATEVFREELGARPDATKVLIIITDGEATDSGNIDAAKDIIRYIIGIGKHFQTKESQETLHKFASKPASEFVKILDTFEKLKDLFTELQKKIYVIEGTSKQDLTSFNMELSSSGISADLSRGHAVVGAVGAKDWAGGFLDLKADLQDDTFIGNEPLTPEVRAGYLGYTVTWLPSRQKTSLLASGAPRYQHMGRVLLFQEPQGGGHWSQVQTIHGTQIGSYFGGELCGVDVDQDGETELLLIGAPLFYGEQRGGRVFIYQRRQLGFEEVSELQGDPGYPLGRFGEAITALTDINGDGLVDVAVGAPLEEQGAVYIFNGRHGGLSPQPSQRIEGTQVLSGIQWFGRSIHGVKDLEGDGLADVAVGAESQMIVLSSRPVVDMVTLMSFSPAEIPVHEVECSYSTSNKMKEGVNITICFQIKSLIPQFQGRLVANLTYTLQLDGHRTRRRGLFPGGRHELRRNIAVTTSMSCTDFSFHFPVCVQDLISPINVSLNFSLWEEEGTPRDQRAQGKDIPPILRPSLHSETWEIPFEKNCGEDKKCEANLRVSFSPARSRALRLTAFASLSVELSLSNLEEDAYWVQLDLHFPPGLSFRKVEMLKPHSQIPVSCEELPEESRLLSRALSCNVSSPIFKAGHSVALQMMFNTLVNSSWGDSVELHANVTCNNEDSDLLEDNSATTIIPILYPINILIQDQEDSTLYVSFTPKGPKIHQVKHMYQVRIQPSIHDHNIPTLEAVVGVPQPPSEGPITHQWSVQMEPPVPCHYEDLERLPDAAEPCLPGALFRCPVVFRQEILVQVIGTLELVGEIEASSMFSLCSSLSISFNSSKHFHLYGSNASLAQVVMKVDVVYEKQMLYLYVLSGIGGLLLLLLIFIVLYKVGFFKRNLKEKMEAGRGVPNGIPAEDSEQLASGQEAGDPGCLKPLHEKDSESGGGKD
T1 sequence (P05107 23-769 partner): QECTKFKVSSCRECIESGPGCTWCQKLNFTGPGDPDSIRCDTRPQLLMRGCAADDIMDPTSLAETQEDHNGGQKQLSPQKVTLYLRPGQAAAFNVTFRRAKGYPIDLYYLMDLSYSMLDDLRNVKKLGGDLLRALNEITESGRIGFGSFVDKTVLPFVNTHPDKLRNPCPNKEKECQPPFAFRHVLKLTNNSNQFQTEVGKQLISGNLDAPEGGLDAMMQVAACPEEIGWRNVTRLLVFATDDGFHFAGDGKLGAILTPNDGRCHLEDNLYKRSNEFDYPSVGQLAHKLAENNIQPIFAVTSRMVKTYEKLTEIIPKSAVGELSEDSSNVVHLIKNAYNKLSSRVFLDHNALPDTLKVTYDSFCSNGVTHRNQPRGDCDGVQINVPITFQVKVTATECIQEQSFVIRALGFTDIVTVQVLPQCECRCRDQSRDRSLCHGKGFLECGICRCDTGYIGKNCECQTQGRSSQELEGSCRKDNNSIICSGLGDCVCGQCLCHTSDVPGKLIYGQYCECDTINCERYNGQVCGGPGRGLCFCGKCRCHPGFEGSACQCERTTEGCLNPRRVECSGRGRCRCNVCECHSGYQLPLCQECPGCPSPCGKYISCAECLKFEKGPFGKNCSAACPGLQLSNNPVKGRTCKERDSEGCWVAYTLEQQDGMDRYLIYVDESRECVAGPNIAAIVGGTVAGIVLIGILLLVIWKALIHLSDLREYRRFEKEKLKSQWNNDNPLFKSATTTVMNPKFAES
In words: ICAM-1/LFA-1 Biochemical Interaction Assay. The conditions noted are these: 4 μM compound; recombinant LFA-1, biotinylated ICAM-1/Ig. The class given is binding. The procedure:
Compounds that antagonize the interaction between ICAM-1 and LFA-1 can be identified, and their activities quantitated, using both biochemical and cell-based adhesion assays. A primary biochemical assay measures the ability of the compound in question to block the interaction between the integrin LFA-1 and its adhesion partner ICAM-1, as described below:
ICAM-1/LFA-1 Biochemical Interaction Assay
In the biochemical assay, 100 μL of anti-LFA-1 antibody (ICOS Corporation) at a concentration of 5 μg/ml mL in Dulbecco's phosphate-buffered saaline (D-PBS) is used to coat wells of a 96-well microtiter plate overnight at 4° C. The wells are were then washed twice with wash buffer (D-PBS w/o Ca^++ or Mg^++, 0.05% Tween 20) and blocked by addition of 200 μL of D-PBS, 5% fish skin gelatin. Recombinant LFA-1 (100 μL of 0.7 μg/ml mL, ICOS Corporation) in D-PBS is was then added to each well. Incubation continues continued for 1 hour at room temperature and the wells are were washed twice with wash buffer. Serial dilutions of compounds being assayed as ICAM-1/LFA-1 antagonists, were prepared as 10 mM stock solutions in dimethyl sulfoxide (DMSO), are were diluted in D-PBS, 2 mM MgCl2, 1% fish skin gelatin and 50 μL of each dilution was added to duplicate wells. This is was followed by the addition of 50 μL of 0.8 μg/ml mL biotinylated recombinant ICAM-1/Ig (ICOS Corporation) to the wells and the plates are were incubated at room temperature for 1 hour. The wells are were then washed twice with wash buffer and 100 μL of Europium-labeled Streptavidin (Wallac Oy) diluted 1:100 in Delfia assay buffer (Wallac Oy), are was then added to the wells. Incubation proceeds proceeded for 1 hour at room temperature. The wells are were washed eight times with wash buffer and 100 μL of enhancement solution (Wallac Oy, cat. No. 1244-105) are was added to each well. Incubation proceeds proceeded for 5 minutes with constant mixing. Time-resolved fluorimetry measurements are were made using the a Victor 1420 Multilabel Counter (Wallac Oy) and the percent inhibition of each candidate compound is was calculated using the following equation: [formula] where “background” refers to wells that are were not coated with anti-LFA-1 antibody.

Where [3] appears, read: Homo sapiens, JY-8, JY-8 cells on immobilized ICAM-1/Ig.
Where [4] appears, read: JY-8 cells on immobilized ICAM-1/Ig.

Regarding `O=C(/C=C/c1ccccc1Sc1ccc(Cl)cc1Cl)NCCCn1ccnc1` [Example 2, (2,4-Dichlorophenyl)[2-(E-((3-(1-imidazolyl)propylamino)carbonyl)ethenyl)phenyl]sulfide], in assay [1] (setting [3]), the IC50 – broadly, the point on the concentration scale where inhibition reaches its midpoint – came to 13000 nM.
Turning to `O=C(O)CN1CCN(C(=O)/C=C/c2ccc(Sc3ccc(Cl)cc3Cl)c([N+](=O)[O-])c2)CC1` [Example 44, (2,4-Dichlorophenyl)[2-nitro-4-(E-((4-(carboxymethyl)piperazin-1-yl)carbonyl)ethenyl)phenyl]sulfide], 70 nM corresponded to half-maximal inhibition in assay [1] (setting [3]) (IC50). Also, the inhibition (in general, how much of the control response was suppressed) at 4 µM in assay [2] is 78%.
Take `O=C(O)C(=O)N1CCN(C(=O)/C=C/c2ccc(Sc3ccc(Cl)cc3Cl)c([N+](=O)[O-])c2)CC1` [Example 43, (2,4-Dichlorophenyl)[2-nitro-4-(E-((4-(carboxycarbonyl)piperazin-1-yl)carbonyl)ethenyl)phenyl]sulfide]: the IC50 in assay [1] (setting [3]) was determined as 100 nM. For the same compound, the inhibition at 4 µM in assay [2] turned out to be 82%.
In the case of `O=C(/C=C/c1ccc(Sc2ccc(Cl)cc2Cl)c(Br)c1)N1CCOCC1` [Example 64, (2,4-Dichlorophenyl)[2-bromo-4-(E-((1-morpholinyl)carbonyl)ethenyl)phenyl]sulfide], in assay [2], the “% inhibition @ 4 μM” value amounted to 81%.
In the case of `O=C(C(=O)N1CCN(C(=O)/C=C/c2ccc(Sc3ccc(Cl)cc3Cl)c([N+](=O)[O-])c2)CC1)c1ccco1` [Example 38, (2,4-Dichlorophenyl)[2-nitro-4-(E-((4-(2-furoylcarbonyl)piperazin-1-yl)carbonyl)ethenyl)phenyl]sulfide], the IC50 in assay [1] (setting [3]) stood at 250 nM. Moreover, the inhibition at 4 µM in assay [2] amounted to 91%.
Consider `CC(=O)N1CCN(C(=O)/C=C/c2ccc(Sc3ccccc3C(C)(C)C)c([N+](=O)[O-])c2)CC1` [Example 51, (2-tert-Butylphenyl)[2-nitro-4-(E-((4-acetylpiperazin-1-yl)carbonyl)ethenyl)phenyl]sulfide], for which the IC50 in assay [1] (setting [3]) came to 690 nM. The inhibition at 4 µM in assay [2] amounted to 84%.
`CC(=O)N1CCCN(C(=O)/C=C/c2ccc(Sc3ccccc3Br)c(Cl)c2)CC1` [Example 22, (2-Bromophenyl)[2-chloro-4-(E-((4-acetylhomopiperazin-1-yl)carbonyl)ethenyl)phenyl]sulfide] displayed an IC50 in assay [1] (setting [3]) of 200 nM. In assay [2], the inhibition at 4 µM was determined as 90%.
Consider `Cc1ccccc1Sc1ccc(/C=C/C(=O)NC2CC2)cc1C(F)(F)F` [Example 31, (2-Methylphenyl)[2-trifluoromethyl-4-(E-((cyclopropylamino)carbonyl)ethenyl)phenyl]sulfide], for which the inhibition at 4 µM in assay [2] turned out to be 92%.
As to `O=C(/C=C/c1ccc(Sc2ccc(Cl)cc2Cl)c(Cl)c1)N1CCN(c2ccccn2)CC1` [Example 10, (2,4-Dichlorophenyl)[2-chloro-4-(E-((4-(2-pyridyl)piperazin-1-yl)carbonyl)ethenyl)phenyl]sulfide], half-maximal inhibition in assay [1] (setting [3]) (IC50) required 1500 nM.
In assay [1] (setting [4]), `O=C(/C=C/c1ccc(Sc2ccccc2CN2CCOCC2)c(Cl)c1)N1CCOCC1` [Example 53, (2-(1-Morpholinylmethyl)phenyl)[2-chloro-4-(E-((1-morpholinyl)carbonyl)ethenyl)phenyl]sulfide] registered an IC50 of 700 nM.
In assay [1] (setting [3]), `O=C(/C=C/c1ccc(Sc2ccc(Cl)cc2Cl)c([N+](=O)[O-])c1)NCCCN1CCCC1=O` [Example 33, (2,4-Dichlorophenyl)[2-nitro-4-(E-((3-(2-oxopyrrolidin-1-yl)propylamino)carbonyl)ethenyl)phenyl]sulfide] returned an IC50 of 300 nM.
In assay [1] (setting [3]), `O=C(/C=C/c1ccc(Sc2ccc(Cl)cc2Cl)c(Cl)c1)NCCCCCCO` [Example 4, (2,4-Dichlorophenyl)[2-chloro-4-(E-((6-hydroxyhexylamino)carbonyl)ethenyl)phenyl]sulfide] gave an IC50 of 680 nM.
In assay [1] (setting [4]), `O=CN1CCN(Cc2ccccc2Sc2ccc(/C=C/C(=O)N3CCOCC3)cc2Cl)CC1` [Example 58, (2-(4-Formylpiperazin-1-ylmethyl)phenyl)[2-chloro-4-(E-((1-morpholinyl)carbonyl)ethenyl)phenyl]sulfide] showed a half-inhibitory concentration (IC50) of 1600 nM.
